Assay results from the supplement of paper PMC11208160.

Test: recombinant UMI read abundance after kanamycin selection (control-corrected) (log10(CPM+1)); higher = more efficient recombination; extreme values may be limits of the assay; sequences stand for … in AGTGCAGAGAAAATCGGCCAGTTTTCTCTGCCTGCAGTCCGCATGCCGTGGGACCCCTTGGGTTCTAACCTGTTGCCTAGATTTATGCAGCGGACTGCCTTTCTCCCAAAGTGATAAACCGG…AGGTTGGTTTCACT; site = the 11-nt donor
Summary of the method: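 Counts of recombinant UMIs were reported as log10(CPM+1). Before that, they were converted to CPM, averaged over replicates and scaled using control-derived factors. They came from PCR across the donor–target junction after Escherichia coli carrying the pair library and target plasmid was plated on IPTG (0.07 mM) plus kanamycin, or unselected, in two replicates each.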
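Note: IS621 bridge recombinase in Escherichia coli cells against a fixed T5 target plasmid.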

In order of falling “recombinant UMI read abundance (log10)” value:
1. AGGGGTTCATGGACCGGTTTTCCCGGTAATCCGTATTTGTC (site AGGGGTTCTGA)  3.19
2. AGTGTCTCATGGACCGGTTTTCCCGGTAATCCGTATTTGCA (site AGTGTCTCTTG)  3.07
3. AGTGGGTCATGGACCGGTTTTCCCGGTAATCCGTATTTGCA (site AGTGGGTCTTG)  2.92
4. AGGCCTACATGGACCGGTTTTCCCGGTAATCCGTATTTGAC (site AGGCCTACTGT)  2.67
5. AGTGTCACATGGACCGGTTTTCCCGGTAATCCGTATTTGGC (site AGTGTCACTGC)  2.62
6. AGGTACGCATGGACCGGTTTTCCCGGTAATCCGTATTTGCC (site AGGTACGCTGG)  2.36
7. AGTAACGCATGGACCGGTTTTCCCGGTAATCCGTATTTGCA (site AGTAACGCTTG)  2.29
8. AGTGTATCATGGACCGGTTTTCCCGGTAATCCGTATTTGCA (site AGTGTATCTTG)  2.25
9. AGTGAATCATGGACCGGTTTTCCCGGTAATCCGTATTTGAG (site AGTGAATCTCT)  2.17
10. AGTAACACATGGACCGGTTTTCCCGGTAATCCGTATTTGCA (site AGTAACACTTG)  2.13
11. AGTTATTCATGGACCGGTTTTCCCGGTAATCCGTATTTGCA (site AGTTATTCTTG)  2.11
12. AGGTTGACATGGACCGGTTTTCCCGGTAATCCGTATTTGCG (site AGGTTGACTCG)  2
13. AGTTGATCATGGACCGGTTTTCCCGGTAATCCGTATTTGTC (site AGTTGATCTGA)  1.94
14. ATAACAGCATGGACCGGTTTTCCCGGTAATCCGTATTTGTT (site ATAACAGCTAA)  1.92
15. AGTGTATCATGGACCGGTTTTCCCGGTAATCCGTATTTGCA (site ACAGTATCTTG)  1.69
16. ATAAAATCATGGACCGGTTTTCCCGGTAATCCGTATTTGCC (site ATAAAATCTGG)  1.66
17. AGGCTTTCATGGACCGGTTTTCCCGGTAATCCGTATTTGGC (site AGGCTTTCTGC)  1.61
18. AGTCGAGCATGGACCGGTTTTCCCGGTAATCCGTATTTGAG (site AGTCGAGCTCT)  1.6
19. AGTGGAACATGGACCGGTTTTCCCGGTAATCCGTATTTGTT (site AGTGGAACTAA)  1.56
20. ATAACAACATGGACCGGTTTTCCCGGTAATCCGTATTTGAA (site ATAACAACTTT)  1.46
21. AGTCTTACATGGACCGGTTTTCCCGGTAATCCGTATTTGCG (site AGTCTTACTCG)  1.32
22. AGTTAGACATGGACCGGTTTTCCCGGTAATCCGTATTTGAG (site AGTTAGACTCT)  1.23
23. AGTGCTGCATGGACCGGTTTTCCCGGTAATCCGTATTTGCA (site AGTGCTGCTTG)  1.21
24. AGGCGTTCATGGACCGGTTTTCCCGGTAATCCGTATTTGTG (site AGGCGTTCTCA)  1.09
25. AGTTAGACATGGACCGGTTTTCCCGGTAATCCGTATTTGAG (site CGTTAGACTCT)  1.06
26. AGGTCGGCATGGACCGGTTTTCCCGGTAATCCGTATTTGTA (site AGGTCGGCTTA)  1.01
27. AGGGCAACATGGACCGGTTTTCCCGGTAATCCGTATTTGTT (site AGGGCAACTAA)  0.85
28. AGGCTTTCATGGACCGGTTTTCCCGGTAATCCGTATTTGAC (site AGACTTTCTGT)  0.817
29. AGTCCCACATGGACCGGTTTTCCCGGTAATCCGTATTTGAA (site AGTCCCACTTT)  0.752
30. ATAACGCCATGGACCGGTTTTCCCGGTAATCCGTATTTGAC (site ATAACGCCTGT)  0.696
31. AGTTAGACATGGACCGGTTTTCCCGGTAATCCGTATTTGAG (site TGTTAGACTCT)  0.674
32. AGGTTCGCATGGACCGGTTTTCCCGGTAATCCGTATTTGTG (site AGGTTCGCTCA)  0.666
33. AGGGATCCATGGACCGGTTTTCCCGGTAATCCGTATTTGAG (site AGGGATCCTCT)  0.635
34. AGTACGTCATGGACCGGTTTTCCCGGTAATCCGTATTTGTT (site CGTACGTCTAA)  0.552
35. AGGCCTACATGGACCGGTTTTCCCGGTAATCCGTATTTGAC (site AGGACTACTGT)  0.528
36. AGGCTTTCATGGACCGGTTTTCCCGGTAATCCGTATTTGAC (site AGGCTTTCTGT)  0.502
37. AGTTAGACATGGACCGGTTTTCCCGGTAATCCGTATTTGAG (site GGTTAGACTCT)  0.353
38. AGTGGAACATGGACCGGTTTTCCCGGTAATCCGTATTTGTT (site CGTGGAACTAA)  0.295
39. AGTACCACATGGACCGGTTTTCCCGGTAATCCGTATTTGTT (site AGTACCACTAA)  0.274
40. AGTACGTCATGGACCGGTTTTCCCGGTAATCCGTATTTGTT (site AGTACGTCTAA)  0.258
41. AGGTTCGCATGGACCGGTTTTCCCGGTAATCCGTATTTGTG (site AGGTTCACTCA)  0.217
42. AGGCTTTCATGGACCGGTTTTCCCGGTAATCCGTATTTGAC (site AGCCTTTCTGT)  0.212
43. AGTACGTCATGGACCGGTTTTCCCGGTAATCCGTATTTGTT (site TGTACGTCTAA)  0.212
44. AGTACGTCATGGACCGGTTTTCCCGGTAATCCGTATTTGTT (site GGTACGTCTAA)  0.198
45. AGGGTTACATGGACCGGTTTTCCCGGTAATCCGTATTTGGG (site AGGGTTACTCC)  0.175
46. AGTTCTGCATGGACCGGTTTTCCCGGTAATCCGTATTTGTT (site AGTTCTGCTAA)  0.0478
47. AGTTCAGCATGGACCGGTTTTCCCGGTAATCCGTATTTGGG (site AGCTCAGCTCC)  0.0322
48. AGGTTCCCATGGACCGGTTTTCCCGGTAATCCGTATTTGTT (site AGGTTCCCTCA)  0.0252
49. AGTTCAGCATGGACCGGTTTTCCCGGTAATCCGTATTTGGG (site AGTTCAGCTCC)  0.017
50. AGTTCAGCATGGACCGGTTTTCCCGGTAATCCGTATTTGGG (site AGGTCAGCTCC)  0.0161
51. AGGTTCGCATGGACCGGTTTTCCCGGTAATCCGTATTTGTG (site AGGTTCCCTCA)  0.015
52. AGTCCGCCATGGACCGGTTTTCCCGGTAATCCGTATTTGGG (site AGTCCGCCTCC)  0.015
53. AGGTTACCATGGACCGGTTTTCCCGGTAATCCGTATTTGTG (site AGGTTACCTCA)  0.0116
54. AGTTCAGCATGGACCGGTTTTCCCGGTAATCCGTATTTGGG (site AGATCAGCTCC)  0.0116
55. AGTGGAACATGGACCGGTTTTCCCGGTAATCCGTATTTGTT (site TGTGGAACTAA)  0.00958
56. AGGTTACCATGGACCGGTTTTCCCGGTAATCCGTATTTGTG (site AGGTTGCCTCA)  0.00949
57. AGGGTACCATGGACCGGTTTTCCCGGTAATCCGTATTTGTA (site AGGGTACCTTA)  0.0065
58. AGTGGAACATGGACCGGTTTTCCCGGTAATCCGTATTTGTT (site GGTGGAACTAA)  0.00617
59. AGGTTACCATGGACCGGTTTTCCCGGTAATCCGTATTTGTG (site AGGTTTCCTCA)  0.00461
60. AGGCCGGCATGGACCGGTTTTCCCGGTAATCCGTATTTGGC (site TGGCCGGCTGC)  0
61. AGGCCTACATGGACCGGTTTTCCCGGTAATCCGTATTTGAC (site AGGGCTACTGT)  0
62. AGGCCTACATGGACCGGTTTTCCCGGTAATCCGTATTTGAC (site AGGTCTACTGT)  0
63. AGGCTTTCATGGACCGGTTTTCCCGGTAATCCGTATTTGAC (site AGTCTTTCTGT)  0
64. AGGTTACCATGGACCGGTTTTCCCGGTAATCCGTATTTGTG (site AGGTTCCCTCA)  0
65. AGGTTCCCATGGACCGGTTTTCCCGGTAATCCGTATTTGTT (site AGGTTCCCTAA)  0
66. AGGTTCCCATGGACCGGTTTTCCCGGTAATCCGTATTTGTT (site AGGTTCCCTGA)  0
67. AGGTTCCCATGGACCGGTTTTCCCGGTAATCCGTATTTGTT (site AGGTTCCCTTA)  0
68. AGGTTCGCATGGACCGGTTTTCCCGGTAATCCGTATTTGTG (site AGGTTCTCTCA)  0
69. AGTAAATCATGGACCGGTTTTCCCGGTAATCCGTATTTGGG (site GCCGTTCCTGA)  0
70. AGTAACACATGGACCGGTTTTCCCGGTAATCCGTATTTGCA (site AGGAAGACTTG)  0
71. ATAAAGCCATGGACCGGTTTTCCCGGTAATCCGTATTTGAC (site ATAAAGCCTGT)  0
72. ATAAAGCCATGGACCGGTTTTCCCGGTAATCCGTATTTGAC (site ATAACGCCTGT)  0
73. ATAAAGCCATGGACCGGTTTTCCCGGTAATCCGTATTTGAC (site ATAAGGCCTGT)  0
74. ATAAAGCCATGGACCGGTTTTCCCGGTAATCCGTATTTGAC (site ATAATGCCTGT)  0
75. ATAACGCCATGGACCGGTTTTCCCGGTAATCCGTATTTGAC (site ATAAAGCCTGT)  0
